From PubChem BioAssay AID248 (DTP/NCI, 2004)
Values joined by “and” are separate entries in the source; they are usually repeats but may differ in a detail not shown here. Identical values can stand only once. Toxic doses and inconclusive results are not listed. No stated cut-off is given here; in the data, active means T/C of 150% or more; inactive means T/C below 125%.

Tested on: L1210 leukemia ip in BDF1 mice, survival T/C
Test: NCI In Vivo Anticancer Drug Screen. Data for tumor model L1210 Leukemia (intraperitoneal) in B6D2F1 (BDF1) mice
Conditions: endpoint: mean survival time, higher = longer survival
Outline: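 Transplanted-tumor mice were given test agent; controls received vehicle only. Survival readings from the two groups were divided (treated over control).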

[1] = dose: 100.0 mg/kg/injection, schedule: Q01DX009 (ip), vehicle: saline
[2] = dose: 200.0 mg/kg/injection, schedule: Q01DX009 (ip), vehicle: saline
[3] = dose: 100.0 mg/kg/injection, schedule: Q04DX003 (ip), vehicle: Klucel (hydroxypropylcellulose) (HPC)
[4] = dose: 200.0 mg/kg/injection, schedule: Q04DX003 (ip), vehicle: Klucel (hydroxypropylcellulose) (HPC)
[5] = dose: 400.0 mg/kg/injection, schedule: Q04DX003 (ip), vehicle: Klucel (hydroxypropylcellulose) (HPC)
[6] = dose: 100.0 mg/kg/injection, schedule: Q04DX002 (ip), vehicle: Klucel (hydroxypropylcellulose) (HPC)
[7] = dose: 200.0 mg/kg/injection, schedule: Q04DX002 (ip), vehicle: Klucel (hydroxypropylcellulose) (HPC)
[8] = dose: 400.0 mg/kg/injection, schedule: Q04DX002 (ip), vehicle: Klucel (hydroxypropylcellulose) (HPC)
[9] = dose: 100.0 mg/kg/injection, schedule: Q01DX009 (ip), vehicle: Klucel (hydroxypropylcellulose) (HPC)
[10] = dose: 200.0 mg/kg/injection, schedule: Q01DX009 (ip), vehicle: Klucel (hydroxypropylcellulose) (HPC)
[11] = dose: 100.0 mg/kg/injection, schedule: Q01DX009 (ip), vehicle: saline with Tween-80
[12] = dose: 200.0 mg/kg/injection, schedule: Q01DX009 (ip), vehicle: saline with Tween-80
[13] = dose: 400.0 mg/kg/injection, schedule: Q01DX009 (ip), vehicle: saline with Tween-80
[14] = dose: 50.0 mg/kg/injection, schedule: Q01DX001 (ip), vehicle: carboxymethylcellulose (CMC)
[15] = dose: 400.0 mg/kg/injection, schedule: Q01DX009 (ip), vehicle: Klucel (hydroxypropylcellulose) (HPC)

Measured: T/C

CCN(CC)c1ccc(N=Cc2ccccc2S(=O)(=O)O)cc1
inactive: dose: 6.25 mg/kg/injection, schedule: Q01DX009 (ip), vehicle: saline 95 % of control | dose: 6.25 mg/kg/injection, schedule: Q04DX003 (ip), vehicle: saline sonified 97 % of control | dose: 12.5 mg/kg/injection, schedule: Q01DX009 (ip), vehicle: saline 96 % of control | dose: 12.5 mg/kg/injection, schedule: Q04DX003 (ip), vehicle: saline sonified 103 % of control | dose: 25.0 mg/kg/injection, schedule: Q01DX009 (ip), vehicle: saline 93 % of control | dose: 25.0 mg/kg/injection, schedule: Q04DX003 (ip), vehicle: saline sonified 110 % of control

O=C1CCCC/C1=C\c1cccc2ccccc12
inactive: dose: 100.0 mg/kg/injection, schedule: Q04DX002 (ip), vehicle: saline with Tween-80 103 % of control | dose: 200.0 mg/kg/injection, schedule: Q04DX002 (ip), vehicle: saline with Tween-80 96 % of control | dose: 400.0 mg/kg/injection, schedule: Q04DX002 (ip), vehicle: saline with Tween-80 88 % of control

O=Cc1ccc2c(c1)c1ccccc1n2C1OC(CO)C(O)C(O)C1O (stereo unspecified)
inactive: dose: 60.0 mg/kg/injection, schedule: Q04DX002 (ip), vehicle: DMSO 102 % of control | dose: 120.0 mg/kg/injection, schedule: Q04DX002 (ip), vehicle: DMSO 97 % of control

CSc1ccccc1NC(=O)NCCCl
inactive: [1] 100 % of control | [2] 98 % of control

CCCCN(CCCC)CC(O)c1cccc2c1cc(Cl)c1ccccc12 (stereo unspecified)
inactive: [3] 102 % of control | [4] 97 % of control | [5] 91 % of control

CCOC(=O)c1cc2c3n(c1=O)CCCC3C(c1ccncc1)OC2=O (stereo unspecified)
inactive: dose: 75.0 mg/kg/injection, schedule: Q04DX003 (ip), vehicle: saline 95 % of control | dose: 150.0 mg/kg/injection, schedule: Q04DX003 (ip), vehicle: saline 100 % of control | dose: 300.0 mg/kg/injection, schedule: Q04DX003 (ip), vehicle: saline 95 % of control

C=CSCCCC(C)=O
inactive: dose: 100.0 mg/kg/injection, schedule: Q01DX001 (ip), vehicle: Klucel (hydroxypropylcellulose) (HPC) 97 % of control | dose: 200.0 mg/kg/injection, schedule: Q01DX001 (ip), vehicle: Klucel (hydroxypropylcellulose) (HPC) 103 % of control | dose: 400.0 mg/kg/injection, schedule: Q01DX001 (ip), vehicle: Klucel (hydroxypropylcellulose) (HPC) 101 % of control

CC1(C)CC2(OC2c2ccccc2)C(C)(O)c2ccccc21 (stereo unspecified)
inactive: dose: 100.0 mg/kg/injection, schedule: Q04DX003 (ip), vehicle: saline with Tween-80 98 % of control | dose: 200.0 mg/kg/injection, schedule: Q04DX003 (ip), vehicle: saline with Tween-80 104 % of control | dose: 400.0 mg/kg/injection, schedule: Q04DX003 (ip), vehicle: saline with Tween-80 96 % of control

O=C1C=C(c2ccccc2)C(=O)O1
inactive: [6] 95 % of control | [7] 92 % of control | [8] 90 % of control

CN(C)C(=S)Sc1ccc([N+](=O)[O-])cc1[N+](=O)[O-]
inactive: dose: 100.0 mg/kg/injection, schedule: Q01DX001 (ip), vehicle: saline with Tween-80 96 % of control | [9] 91 % of control | dose: 200.0 mg/kg/injection, schedule: Q01DX001 (ip), vehicle: saline with Tween-80 100 % of control | [10] 93 % of control | dose: 400.0 mg/kg/injection, schedule: Q01DX001 (ip), vehicle: saline with Tween-80 100 % of control | [5] 86 % of control

CCC(=O)c1cc([N+](=O)[O-])ccc1N
inactive: dose: 50.0 mg/kg/injection, schedule: Q01DX009 (ip), vehicle: saline with Tween-80 100 % of control | [11] 100 % of control | [12] 100 % of control

CNC(=O)Nc1ccc(Nc2ccccc2)cc1
inactive: [6] 105 % of control | [7] 97 % of control | [8] 91 % of control

COC(=O)C1ON(C(=O)c2ccccc2)C(C)C(O)C1OC=O (stereo unspecified)
inactive: [6] 95 % of control | [7] 95 % of control | [8] 103 % of control

NC(=O)n1cccn1
inactive: dose: 25.0 mg/kg/injection, schedule: Q01DX Z (ip), vehicle: carboxymethylcellulose (CMC) 100 % of control | dose: 50.0 mg/kg/injection, schedule: Q01DX Z (ip), vehicle: carboxymethylcellulose (CMC) 102 % of control | dose: 100.0 mg/kg/injection, schedule: Q01DX Z (ip), vehicle: carboxymethylcellulose (CMC) 102 % of control | dose: 200.0 mg/kg/injection, schedule: Q01DX Z (ip), vehicle: carboxymethylcellulose (CMC) 100 % of control and 109 % of control | dose: 400.0 mg/kg/injection, schedule: Q01DX Z (ip), vehicle: carboxymethylcellulose (CMC) 102 % of control

CC(OC(=O)CF)C(C)OC(=O)CF (stereo unspecified)
inactive: dose: 0.5 mg/kg/injection, schedule: Q01DX001 (ip), vehicle: carboxymethylcellulose (CMC) 110 % of control | dose: 1.0 mg/kg/injection, schedule: Q01DX001 (ip), vehicle: carboxymethylcellulose (CMC) 94 % of control | dose: 2.0 mg/kg/injection, schedule: Q01DX001 (ip), vehicle: carboxymethylcellulose (CMC) 108 % of control | dose: 4.0 mg/kg/injection, schedule: Q01DX001 (ip), vehicle: carboxymethylcellulose (CMC) 100 % of control | dose: 8.0 mg/kg/injection, schedule: Q01DX001 (ip), vehicle: carboxymethylcellulose (CMC) 108 % of control

CCOc1ccccc1NC(=O)Nc1cccc(F)c1
inactive: [11] 104 % of control | [12] 96 % of control | [13] 93 % of control

OCc1ccccc1
inactive: [11] 105 % of control | [3] 100 % of control | [12] 102 % of control | [4] 101 % of control | [13] 96 % of control | [5] 98 % of control

O=c1[nH]cnc2nncnc12
inactive: [14] 93 % of control

O=C(N/N=C/NN/C=N/NC(=O)c1ccncc1)c1ccncc1
inactive: dose: 75.0 mg/kg/injection, schedule: Q01DX001 (ip), vehicle: saline 101 % of control | dose: 150.0 mg/kg/injection, schedule: Q01DX001 (ip), vehicle: saline 100 % of control

CCCC(=O)OC(C(=O)OCC)c1ccccc1 (stereo unspecified)
inactive: [11] 98 % of control | [12] 106 % of control | [13] 96 % of control

CC12CC3C(C(=O)O)C(C(=O)O)C1C(C(=O)O2)C3C(=O)O (stereo unspecified)
inactive: dose: 50.0 mg/kg/injection, schedule: Q01DX009 (ip), vehicle: saline 97 % of control | dose: 100.0 mg/kg/injection, schedule: Q01DX001 (ip), vehicle: saline 91 % of control | [1] 90 % of control | dose: 200.0 mg/kg/injection, schedule: Q01DX001 (ip), vehicle: saline 89 % of control | [2] 100 % of control | dose: 400.0 mg/kg/injection, schedule: Q01DX001 (ip), vehicle: saline 87 % of control

CCCCCCCCCCNC(=O)C[n+]1cccc(C(N)=O)c1
inactive: dose: 12.5 mg/kg/injection, schedule: Q04DX003 (ip), vehicle: saline 86 % of control | dose: 25.0 mg/kg/injection, schedule: Q04DX003 (ip), vehicle: saline 89 % of control | dose: 50.0 mg/kg/injection, schedule: Q04DX003 (ip), vehicle: saline 102 % of control

O=C(Nc1cccc(Cl)c1)C(Br)C(Br)c1ccccc1 (stereo unspecified)
inactive: [9] 102 % of control | [10] 103 % of control | [15] 100 % of control

O=C(NO)c1ccc([N+](=O)[O-])cc1
inactive: [9] 92 % of control | dose: 180.0 mg/kg/injection, schedule: Q01DX015 (ip), vehicle: water 101 % of control | [10] 103 % of control | dose: 270.0 mg/kg/injection, schedule: Q01DX015 (ip), vehicle: water 107 % of control and 117 % of control and 119 % of control | dose: 400.0 mg/kg/injection, schedule: Q01DX001 (ip), vehicle: water 97 % of control | [15] 109 % of control | dose: 600.0 mg/kg/injection, schedule: Q01DX001 (ip), vehicle: water 97 % of control

C=CC(C)C1C(C)C(Cl)CC(Cl)C1OC(=O)c1ccccc1 (stereo unspecified)
inactive: [14] 100 % of control | dose: 100.0 mg/kg/injection, schedule: Q01DX001 (ip), vehicle: carboxymethylcellulose (CMC) 112 % of control | dose: 200.0 mg/kg/injection, schedule: Q01DX001 (ip), vehicle: carboxymethylcellulose (CMC) 94 % of control | dose: 400.0 mg/kg/injection, schedule: Q01DX001 (ip), vehicle: carboxymethylcellulose (CMC) 96 % of control
